Measurements taken from US20180177724A1, “SITE-TARGETED NANO-LIPOSOMAL NITROGLYCERIN THERAPEUTICS” (The Regents of the University of California, priority 2015, published 2018).
Where two headings read alike, the source gives them in different places.

Assays:
[1] = test system: endothelial mitochondrial superoxide; assay: Endothelial mitochondrial superoxide production (MitoSOX); assay type: cell-based, human; details: free NTG 100 μM (20-fold above effective dose), L-NIO-treated ECs
Protocol: ECs were plated at sub-confluence on gelatin-coated MatTek dishes under normal culture conditions and subjected to overnight treatment with either L-NIO (3 mM)±[NTG (5, 25, or 100 μM) or NTG-NL (5, 50 or 100 μg/mL)]. To detect mitochondrial superoxide, ECs were labeled with MitoSOX™ (Life Technologies, USA), a mitochondrial superoxide-sensitive fluorescent dye that is widely used to measure mitochondrial ROS production under various conditions, including NTG treatment. ECs were labeled with MitoSOX™ Red at a final dose of 5 μM in KHB for 10 minutes at 37° C., rinsed three times with KHB to remove excess dye and placed at 37° C. in KHB for an additional 10 minutes prior to live cell imaging. Fluorescence images (six per condition) were acquired using Nikon Eclipse Ti microscope and total cell fluorescence intensity from at least 20 cells was analyzed using ImageJ software.

[2] = test system: endothelial ICAM-1 clustering; assay: ICAM-1 clustering in U937 cell-EC co-cultures; assay type: cell-based, human; details: NTG 5 μM
Protocol: ECs were grown to confluence on glass coverslips under normal growth conditions and treated with L-NIO (5 mM)±[NTG (5 μM) or NTG-NL (5 μg/mL)] for 24 h. Next, a monocyte adhesion assay was performed (as described earlier) and the monocyte-EC co-cultures fixed, permeabilized with 0.1% Triton X-100, blocked with 2% bovine serum albumin (BSA; Millipore, USA), and sequentially incubated with primary anti-ICAM-1 mouse antibody (Santa Cruz Biotechnology, USA) and secondary FITC-conjugated DyLight 488 anti-mouse IgG (Vector Labs, USA). To visualize actin microfilaments, monocyte-EC co-cultures were incubated with Alexa Fluor 594-Phalloidin (BD Biosciences, USA). Coverslips were mounted onto glass slides and fluorescence images (15 per condition) were taken using a Nikon Eclipse Ti microscope fitted with a Nikon Digital Sight DS-Qi1Mc camera. ICAM-1 clustering index was determined using ImageJ by normalizing the total monocyte fluorescence (from at least 30 cells) to the background of the surrounding EC cytoplasm.

[3] = test system: endothelial NO production; assay: EC-secreted (extracellular) NO by Nitric Oxide Analyzer (NOA); assay type: cell-based, human; details: NTG 5 μM, L-NIO-treated ECs
Protocol: (§1) Two independent methods were used to measure the amount of NO produced by ECs. In the first method, ECs were treated overnight with L-NIO (5 mM)±NTG (5 μM) or NTG-NL (10 μg/mL), followed by incubation with a NO-sensitive fluorescent dye DAF-FM diacetate (2 μM; Life Technologies, USA) for 20 minutes at 37° C. Following dye loading, ECs were again treated with L-NIO and NTG during a recovery phase for an additional 1 h in regular growth medium. EC culture media was then rinsed once with Krebs-Henseleit Buffer (KHB) containing 125 mM NaCl, 4.74 mM KCl, 2.5 mM CaCl2, 1.2 mM KH2PO4 1.2 mM MgSO4, 5 mM NaHCO3 and 10 mM Glucose (Sigma Aldrich, USA), replaced with fresh KHB and immediately subjected to live cell fluorescence imaging using Nikon Eclipse Ti microscope. At least 30 cells per condition were analyzed for total cell fluorescence using ImageJ software (NIH). For the second method, a Nitric Oxide Analyzer (NOA; Sievers, USA) was used to measure EC-secreted NO in culture medium. For this measurement, confluent ECs were treated overnight with either L-NIO (5 mM)±NTG (5 μM) or NTG alone, followed by sequential 1 h incubations with KHB without and with L-NIO±NTG at 37° C. KHB conditioned medium (4 replicates per condition) was then collected and analyzed using NOA.

[4] = in vivo; cited from earlier work
[5] = test system: U937 monocytic cell adhesion to L-NIO-treated ECs; assay: Monocyte adhesion assay, L-NIO-treated (NO-deficient) ECs; assay type: cell-based, human; details: for U937 cell-EC adhesion after 4 hr treatment: L-NIO
Protocol: Human microvascular endothelial cells (HMEC-1) were purchased from the Center for Disease Control (CDC) and cultured on gelatin-coated tissue culture dishes in growth medium composed of MCDB-131 (VWR International, USA) supplemented with 10% FBS (Fisherbrand, USA), 2 mM L-Glutamine (Invitrogen, USA), 1× antimycotic/antibiotic mixture (Life Technologies, USA), 10 ng/mL huEGF (Millipore, USA) and 1 μg/mL Hydrocortizone (Sigma Aldrich, USA). Human U937 monocyte cells were purchased from ATCC (Manassas, Va., USA) and cultured in suspension in growth medium composed of RPMI 1640 (Fisherbrand, USA) supplemented with 2 mM L-Glutamine (Invitrogen), 10 mM HEPES (Fisherbrand, USA), 10% FBS (Fisherbrand), antimycotic/antibiotic mixture (Life Technologies, USA), 1 mM sodium pyruvate (Life Technologies, USA) and 4.5 mg/mL glucose (Sigma Aldrich, USA).
After 30 min of monocyte-EC interaction at 37° C., monocyte suspension was removed and the EC monolayers gently rinsed twice with PBS (to remove unbound monocytes) prior to fixation in 1% paraformaldehyde (PFA; Electron Microscopy Sciences, USA). Fluorescent images (10 per condition) of labeled U937 cells were then acquired using a Nikon Eclipse Ti microscope (Nikon, Japan) fitted with a Nikon Digital Sight DS-Qi1Mc camera and the number of adherent monocytes was counted using ImageJ software (NIH).

[6] = test system: endothelial NO production; assay: Intracellular NO by DAF-FM diacetate fluorescence; assay type: cell-based, human; details: NTG 5 μM
Protocol: as §1

[7] = test system: isolated sheep pulmonary arteries; assay: Pulmonary artery ring isometric tension: NTG-induced vasorelaxation after pretreatment
Protocol: All animal procedures were in accordance with the Animal Welfare Act, the Guiding Principles in the Care and Use of Animals approved by the Council of the American Physiological Society, the National Institutes of Health Guide for the Care and Use of Laboratory Animals, and Loma Linda University Institutional Animal Care and Use Committee (IACUC). Pregnant ewes were anesthetized with ketamine (10 mg/kg, IV) and midazolam (5 mg/kg, IV) and anesthesia maintained with inhalation of 1-3% isofluranein O2 throughout surgery as required. Ewes and Fetuses were euthanized with an overdose of Euthasol (pentobarbital sodium, 100 mg/kg) and phenytoin sodium (10 mg/kg; Virbac, Ft. Worth, Tex.).
To assess arterial vasorelaxation in response to NTG treatment, pulmonary arteries (4th-5th order) were harvested from newborn fetal sheep (gestational period between 138-141 days), dissected free of parenchyma and cut into 5 mm long rings (at least 8 per condition) in ice-cold HEPES buffer (Sigma Aldrich, USA). […] Following treatment, rings were mounted onto tungsten wires under 0.5 g of resting tension in organ baths containing KHB, gassed with 95% O2-5% CO2, and maintained at 37° C. Arterial rings were rinsed once with KHB, allowed to equilibrate for at least 30 minutes, and re-tensioned prior to addition of 125 mM KCl (Sigma Aldrich, USA) to ensure rings were still functional. Rings were rinsed three times to remove KCl, allowed to relax, and preconstricted with 10 μM Serotonin (Tocris Bioscience, USA) to achieve 100% contraction. Rings were then exposed to increasing concentrations of free NTG (1 nM to 100 μM) and subsequent recordings of concentration-response curves were acquired using a force displacement transducer (AD Instruments, New Zealand) and analyzed using Prism (Graphpad Software Inc).

In the case of `O=[N+]([O-])OCC(CO[N+](=O)[O-])O[N+](=O)[O-]` [NTG, Nitroglycerin], the “increase in mitochondrial superoxide formation” value [1] is reported as 2 fold, the “effect on ICAM-1 clustering induced by L-NIO” value [2] is reported as “inhibited” and the “recovery of EC-dependent (extracellular) NO production” value [3] is reported as “complete recovery”. The “time of clearance of NTG from bloodstream” value [4] was 15 to 30 min, the “effect on U937 monocytic cell adhesion to ECs” value [5] was “dose-dependent inhibition” and the EC50 ([5]; Homo sapiens, U-937, read-out: EC50, inhibition of human monocyte adhesion to NO-deficient human microvascular ECs) was 0.64 µM. For the same compound, the “effective anti-inflammatory NTG dose” value ([5]; L-NIO-treated ECs, adhesion back to level of untreated ECs) was 5 µM, the “U937 cell-EC adhesion after 4 hr treatment” value ([5]; NTG 5 μM) was “significant inhibition of U937 cell-EC adhesion” and the “U937 cell-EC adhesion after 4 hr treatment” value ([5]; free NTG 100 μM) was “loses its therapeutic effect”. For the same compound, the “loss (decrease) in anti-inflammatory effect at high dose” value ([5]; free NTG 100 μM, L-NIO-treated ECs) was roughly 2 fold, the “anti-inflammatory effect of free NTG at the amount equivalent to NTG-NL” value ([5]; listed as Free NTG) was “does not produce a significant anti-inflammatory effect” and the “anti-inflammatory effect of free NTG at the amount equivalent to NTG-NL” value ([5]; listed as free NTG) was “failed to produce a significant anti-inflammatory effect”. The “recovery of intracellular NO in L-NIO-treated cells” value [6] was 79%, the IC50 ([7]; Ovis aries, read-out: Mean IC50 of NTG-induced relaxation, arteries pretreated 4 h with free NTG 5 μM) was 0.25 µM and the IC50 ([7]; Ovis aries, read-out: Mean IC50 of NTG-induced relaxation, arteries pretreated 4 h with free NTG 100 μM) was 15 µM. The IC50 ([7]; Ovis aries, read-out: −Log IC50 of NTG-induced relaxation, arteries pretreated 4 h with free NTG 5 μM (converted), mean ± SEM) was 0.251 µM, the IC50 ([7]; Ovis aries, read-out: −Log IC50 of NTG-induced relaxation, arteries pretreated 4 h with free NTG 100 μM (converted), mean ± SEM) was 15.5 µM and the “Maximal Relaxation (%)” value ([7]; arteries pretreated 4 h with free NTG 5 μM, mean ± SEM) was 69 ± 4 %. For the same compound, the “Maximal Relaxation (%)” value ([7]; arteries pretreated 4 h with free NTG 100 μM, mean ± SEM) was 66 ± 9% and the IC50 ([7]; read-out: Mean IC50 of NTG-induced relaxation, arteries pretreated 4 h with free NTG 100 μM) was 15.5 µM.
